Results: ChEMBL document CHEMBL4402560, “Sarco/Endoplasmic Reticulum Calcium ATPase Inhibitors: Beyond Anticancer Perspective” (J Med Chem, 2020)
Values belong to the molecule of their own block, whether it stands above or below them.

Legend:
[1] = molecular target: T1, Sarcoplasmic/endoplasmic reticulum calcium ATPase 1 (Oryctolagus cuniculus, UniProt P04191); test: Inhibition of rabbit skeletal muscle microsomes FITC-labelled SERCA1a incubated for 1 hr by fluorescence spectrophotometric method
[2] = Inhibition of porcine cerebellar microsomes FITC-labelled SERCA2b incubated for 1 hr by fluorescence spectrophotometric method
[3] = Inhibition of Porcine cerebellar microsomes SERCA preincubated for 10 mins followed by addition of ATP and measured after 10 mins by colorimetric method; parameters: species or system Sus scrofa domesticus, Cerebellum
[4] = Inhibition of Porcine cardiac microsomes SERCA preincubated for 10 mins followed by addition of ATP and measured after 10 mins by colorimetric method; parameters: species or system Sus scrofa domesticus, Heart
[5] = molecular target: T1, Sarcoplasmic/endoplasmic reticulum calcium ATPase 1; test: Inhibition of rabbit skeletal muscle microsomes SERCA1a
[6] = molecular target: T2, Sarcoplasmic/endoplasmic reticulum calcium ATPase 2 (Homo sapiens, UniProt P16615); test: Inhibition of SERCA2a (unknown origin)
[7] = molecular target: T1, Sarcoplasmic/endoplasmic reticulum calcium ATPase 1; test: Inhibition of rabbit SERCA1b expressed in COS7 cells microsomal membranes preincubated for 10 mins followed by addition of ATP and measured after 40 mins by ELISA method; format: cell-based
[8] = molecular target: T2, Sarcoplasmic/endoplasmic reticulum calcium ATPase 2; test: Inhibition of human SERCA2b expressed in COS7 cells microsomal membranes preincubated for 10 mins followed by addition of ATP and measured after 40 mins by ELISA method; format: cell-based
[9] = molecular target: Sarcoplasmic/endoplasmic reticulum calcium ATPase 3 (Homo sapiens, UniProt Q93084); test: Inhibition of human SERCA3a expressed in COS7 cells microsomal membranes preincubated for 10 mins followed by addition of ATP and measured after 40 mins by ELISA method; format: cell-based
[10] = Inhibition of SERCA (unknown origin); parameters: species or system Homo sapiens
Homo sapiens = species: Homo sapiens; test: Inhibition of SERCA (unknown origin) at 150 uM relative ro control
[11] = molecular target: T1, Sarcoplasmic/endoplasmic reticulum calcium ATPase 1; test: Inhibition of rabbit skeletal muscle microsomes SERCA1a incubated for 10 mins by enzyme-coupled method
[12] = molecular target: T1, Sarcoplasmic/endoplasmic reticulum calcium ATPase 1; test: Inhibition of rabbit SERCA1a preincubated for 10 mins followed by addition of ATP and measured after 10 mins by colorimetric method
Sus scrofa domesticus = species: Sus scrofa domesticus; test: Inhibition of Porcine cerebellar microsomes SERCA at 200 uM preincubated for 10 mins followed by addition of ATP and measured after 10 mins by colorimetric method relative to control; settings: Cerebellum
[13] = Inhibition of SERCA in human PC3 cell microsomes by enzyme-coupled method
[14] = molecular target: T1, Sarcoplasmic/endoplasmic reticulum calcium ATPase 1; test: Inhibition of rabbit skeletal muscle microsomes SERCA1a preincubated for 10 mins followed by addition of ATP and measured after 40 mins
[15] = molecular target: T1, Sarcoplasmic/endoplasmic reticulum calcium ATPase 1; test: Inhibition of rabbit microsomes SERCA1a by enzyme-coupled method
[16] = Inhibition of fish liver microsomes SERCA by enzyme-coupled method; parameters: species or system Squalius cephalus
[17] = molecular target: T1, Sarcoplasmic/endoplasmic reticulum calcium ATPase 1; test: Inhibition of rabbit skeletal muscle microsomes SERCA1a by enzyme-coupled method
[18] = Inhibition of porcine cerebellar microsomes SERCA2b by enzyme-coupled method; parameters: species or system Sus scrofa domesticus, Cerebellum

T1 sequence (P04191 whole entry): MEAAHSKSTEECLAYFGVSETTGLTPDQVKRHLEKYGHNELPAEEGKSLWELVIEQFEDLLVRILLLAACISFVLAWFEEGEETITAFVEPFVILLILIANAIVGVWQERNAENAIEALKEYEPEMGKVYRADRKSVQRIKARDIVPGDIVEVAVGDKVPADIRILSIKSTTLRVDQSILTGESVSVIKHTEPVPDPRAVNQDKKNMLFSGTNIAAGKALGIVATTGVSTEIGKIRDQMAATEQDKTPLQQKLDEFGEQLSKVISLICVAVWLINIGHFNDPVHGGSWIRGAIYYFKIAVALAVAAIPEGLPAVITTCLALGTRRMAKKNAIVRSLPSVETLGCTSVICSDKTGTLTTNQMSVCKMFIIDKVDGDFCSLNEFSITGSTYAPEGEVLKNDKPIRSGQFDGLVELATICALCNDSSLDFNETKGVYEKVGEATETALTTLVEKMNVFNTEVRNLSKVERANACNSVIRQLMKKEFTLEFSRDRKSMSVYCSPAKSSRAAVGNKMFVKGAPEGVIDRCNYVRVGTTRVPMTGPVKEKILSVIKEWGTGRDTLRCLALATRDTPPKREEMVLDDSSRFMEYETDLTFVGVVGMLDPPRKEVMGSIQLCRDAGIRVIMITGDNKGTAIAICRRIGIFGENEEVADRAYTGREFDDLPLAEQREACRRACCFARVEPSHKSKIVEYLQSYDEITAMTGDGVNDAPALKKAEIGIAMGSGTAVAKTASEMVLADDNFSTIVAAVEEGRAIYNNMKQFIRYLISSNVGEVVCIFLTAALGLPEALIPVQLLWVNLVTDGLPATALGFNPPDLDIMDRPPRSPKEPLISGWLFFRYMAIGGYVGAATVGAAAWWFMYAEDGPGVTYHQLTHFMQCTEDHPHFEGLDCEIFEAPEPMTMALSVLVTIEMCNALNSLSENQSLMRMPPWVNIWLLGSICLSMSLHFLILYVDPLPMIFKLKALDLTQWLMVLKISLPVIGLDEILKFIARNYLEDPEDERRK
T2 sequence (P16615 whole entry): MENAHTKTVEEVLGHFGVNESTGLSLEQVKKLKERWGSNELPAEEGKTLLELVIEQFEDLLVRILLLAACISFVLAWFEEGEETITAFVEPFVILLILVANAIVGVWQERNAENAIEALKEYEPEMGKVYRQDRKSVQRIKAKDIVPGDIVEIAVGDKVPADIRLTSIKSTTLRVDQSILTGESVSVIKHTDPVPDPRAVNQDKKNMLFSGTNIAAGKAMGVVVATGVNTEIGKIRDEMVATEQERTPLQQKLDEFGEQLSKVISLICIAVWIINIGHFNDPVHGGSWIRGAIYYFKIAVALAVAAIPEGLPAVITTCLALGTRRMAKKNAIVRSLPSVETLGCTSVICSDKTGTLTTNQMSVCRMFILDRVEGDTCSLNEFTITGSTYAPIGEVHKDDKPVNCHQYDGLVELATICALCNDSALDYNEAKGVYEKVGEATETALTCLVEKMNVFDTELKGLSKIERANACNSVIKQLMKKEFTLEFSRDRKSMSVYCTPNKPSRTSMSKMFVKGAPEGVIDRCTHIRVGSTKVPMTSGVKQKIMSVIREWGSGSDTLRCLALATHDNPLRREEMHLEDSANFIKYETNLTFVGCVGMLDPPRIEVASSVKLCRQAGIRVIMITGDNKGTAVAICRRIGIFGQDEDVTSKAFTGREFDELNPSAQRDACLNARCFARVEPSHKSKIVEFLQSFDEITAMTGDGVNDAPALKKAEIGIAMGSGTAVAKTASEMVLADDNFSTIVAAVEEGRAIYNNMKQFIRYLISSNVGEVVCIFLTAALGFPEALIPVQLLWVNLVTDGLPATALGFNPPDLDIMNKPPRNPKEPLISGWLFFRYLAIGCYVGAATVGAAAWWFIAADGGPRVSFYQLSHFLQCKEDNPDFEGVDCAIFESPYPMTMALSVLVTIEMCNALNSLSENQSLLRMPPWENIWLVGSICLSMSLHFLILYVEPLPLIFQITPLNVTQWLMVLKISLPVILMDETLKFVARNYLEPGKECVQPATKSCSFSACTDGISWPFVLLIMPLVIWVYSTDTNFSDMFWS
Sarcoplasmic/endoplasmic reticulum calcium ATPase 3, sequence (Q93084 whole entry): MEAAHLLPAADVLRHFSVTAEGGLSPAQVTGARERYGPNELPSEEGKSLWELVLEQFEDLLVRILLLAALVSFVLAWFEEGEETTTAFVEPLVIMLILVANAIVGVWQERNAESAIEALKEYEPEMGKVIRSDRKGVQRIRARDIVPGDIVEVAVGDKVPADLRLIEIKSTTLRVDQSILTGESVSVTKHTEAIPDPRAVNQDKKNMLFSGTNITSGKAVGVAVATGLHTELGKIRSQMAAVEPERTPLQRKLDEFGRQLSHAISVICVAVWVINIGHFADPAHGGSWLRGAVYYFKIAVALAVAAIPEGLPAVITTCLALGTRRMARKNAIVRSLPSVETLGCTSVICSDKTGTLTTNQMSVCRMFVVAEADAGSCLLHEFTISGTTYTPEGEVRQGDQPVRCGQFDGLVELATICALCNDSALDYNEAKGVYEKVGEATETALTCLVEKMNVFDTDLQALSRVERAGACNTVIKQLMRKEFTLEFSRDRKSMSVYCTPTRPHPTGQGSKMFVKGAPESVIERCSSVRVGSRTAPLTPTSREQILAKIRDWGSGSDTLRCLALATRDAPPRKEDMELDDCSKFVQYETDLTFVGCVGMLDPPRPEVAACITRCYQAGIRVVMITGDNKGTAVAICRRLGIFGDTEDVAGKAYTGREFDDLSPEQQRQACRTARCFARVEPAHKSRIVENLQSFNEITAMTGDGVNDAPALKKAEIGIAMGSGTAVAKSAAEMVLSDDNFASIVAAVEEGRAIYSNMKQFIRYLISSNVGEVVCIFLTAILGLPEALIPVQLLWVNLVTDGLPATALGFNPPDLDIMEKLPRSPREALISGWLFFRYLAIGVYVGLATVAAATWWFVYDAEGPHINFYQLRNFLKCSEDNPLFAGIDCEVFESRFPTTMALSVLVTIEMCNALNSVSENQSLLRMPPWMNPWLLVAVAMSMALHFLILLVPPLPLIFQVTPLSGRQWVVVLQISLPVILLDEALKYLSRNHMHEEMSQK

Molecule: NCCOB(c1ccccc1)c1ccccc1
IC50 [1]: 70 to 700 µM | IC50 [2]: 70 to 700 µM

Molecule: C/C=C/C/C(C)=C\[C@H]1C/C=C/C=C/C[C@H](C)/C=C(\C)[C@@H](OC)C/C=C/[C@@H](O)CC(=O)O1
Ki [5]: 0.017 µM | Ki [6]: 0.027 µM

Molecule: CC(C)(C)c1cc(O)c(C(C)(C)C)cc1O
IC50 [7]: 2 to 7 µM | IC50 [8]: 2 to 7 µM | IC50 [9]: 2 to 7 µM | IC50 [10]: 0.4 µM

Molecule: OCCN1CCN(CCCN2c3ccccc3Sc3ccc(C(F)(F)F)cc32)CC1 [FLUPHENAZINE]
IC50 [11]: 15 µM

Molecule: C/C(O)=C1\C(=O)[C@@H]2[C@H]3c4c[nH]c5cccc(c45)C[C@H]3C(C)(C)N2C1=O
IC50 [7]: 0.09 to 2.5 µM | IC50 [8]: 0.09 to 2.5 µM | IC50 [9]: 0.09 to 2.5 µM

Molecule: CCOC(=O)CC1C(C(=O)OCC)=C(N)Oc2ccc(-c3cc(OC)cc(OC)c3)cc21 (stereo not drawn)
IC50 [5]: 13.5 µM

Molecule: O=c1c(O)c(-c2ccccc2)oc2cc(O)cc(O)c12 [GALANGIN]
IC50 [14]: 9 µM

Molecule: CC/C(=C(/CC)c1ccc(O)cc1)c1ccc(O)cc1 [DIETHYLSTILBESTROL]
IC50 [15]: 14 to 20 µM | IC50 [16]: 7 to 20 µM | IC50 [10]: 15 µM

Molecule: O=C(O[C@@H]1Cc2c(O)cc(O)cc2O[C@@H]1c1cc(O)c(O)c(O)c1)c1cc(O)c(O)c(O)c1 [EPIGALOCATECHIN GALLATE]
IC50 [5]: 12 µM

Molecule: O=c1c(O)c(-c2ccc(O)c(O)c2)oc2cc(O)cc(O)c12 [QUERCETIN]
IC50 [14]: 9 µM

Molecule: O=c1c(O)c(-c2ccccc2)oc2ccc(O)cc12
IC50 [14]: 6 µM

More lines, now with the values ahead:

IC50 [3]: 15 µM | IC50 [4]: 15 µM
Molecule: IVERMECTIN

inhibition (Homo sapiens): 100%
Molecule: O=C1c2c(O)cc(O)cc2OC2(c3ccc(O)c(O)c3)Oc3cc(-c4oc5cc(O)cc(O)c5c(=O)c4O)ccc3OC12O (stereo not drawn)

IC50 [12]: 77 µM | IC50 [3]: 77 µM | IC50 [4]: 77 µM | inhibition (Sus scrofa domesticus): 80%
Molecule: CO[C@H]1C[C@@H]2CC[C@@H](C)[C@@](O)(O2)C(=O)C(=O)N2CCCC[C@H]2C(=O)O[C@H]([C@H](C)C[C@@H]2CC[C@@H](O)[C@H](OC)C2)CC(=O)[C@H](C)/C=C(\C)[C@@H](O)[C@@H](OC)C(=O)[C@H](C)C[C@H](C)/C=C/C=C/C=C/1C [SIROLIMUS]

IC50 [13]: 32 µM
Molecule: Cc1ccc(-c2cc(C(F)(F)F)nn2-c2ccc(S(N)(=O)=O)cc2)cc1 [CELECOXIB]

IC50 [11]: 23 µM
Molecule: CN(C)CCCN1c2ccccc2Sc2ccc(Cl)cc21 [CHLORPROMAZINE]

IC50 [17]: 0.5 to 2.3 µM | IC50 [18]: 0.5 to 2.3 µM
Molecule: CC(C)(c1cc(Br)c(O)c(Br)c1)c1cc(Br)c(O)c(Br)c1

IC50 [5]: 0.61 µM
Molecule: CC[C@H](C)[C@H](NC(=O)[C@H](CCCCN)NC(=O)[C@H](CCCCN)NC(=O)[C@H](C)NC(=O)[C@H](CC(C)C)NC(=O)[C@H](C)NC(=O)[C@H](C)NC(=O)[C@H](CC(C)C)NC(=O)[C@H](C)NC(=O)[C@H](CCCCN)NC(=O)[C@H](CC(C)C)NC(=O)[C@H](CC(N)=O)NC(=O)[C@@H](NC(=O)[C@H](Cc1ccc(O)cc1)NC(=O)[C@H](CCCNC(=N)N)NC(=O)[C@@H]1CCCN1C(=O)[C@H](CCCNC(=N)N)NC(=O)[C@H](CC(N)=O)NC(=O)[C@H](CCC(N)=O)NC(=O)[C@H](Cc1ccccc1)NC(=O)[C@@H](Cc1ccc(O)cc1)N(C)C(=O)Cc1ccccc1)[C@@H](C)CC)C(=O)N[C@@H](CC(C)C)C(N)=O

IC50 [5]: 30 µM
Molecule: Cc1ccc(-c2cc(C(F)(F)F)nn2-c2ccc(S(N)(=O)=O)cc2)c(C)c1
